Measured values from patent publication US20180057467A1, “NOVEL TRIAZOLE DERIVATIVES” (BAYER CROPSCIENCE AKTIENGESELLSCHAFT, priority 2015, published 2018).

Assay: LogP by HPLC on reversed phase columns (EEC directive 79/831 Annex V.A8)
Format: physicochemical
Details: method [a]: LC-UV, acidic range, 0.1% formic acid in water and acetonitrile as eluent
Protocol: [table] If more than one Log P value is available within the same method, all the values are given and separated by “+”. […] Lambda-max-values were determined using UV-spectra from 200 nm to 400 nm and the peak values of the chromatographic signals.

SMILES | LogP
OC(Cn1cncn1)(c1ccc(F)cc1F)C1(Oc2cc(F)c(F)c(F)c2)CC1 (racemic) [Example I-05] | 3.44^[a]
OC(Cn1cncn1)(c1ccc(F)cc1F)C1(Oc2c(Cl)ccc(Cl)c2Cl)CC1 (racemic) [Example I-06] | 4.19^[a]
OC(Cn1cncn1)(c1ccc(F)cc1F)C1(Oc2c(Cl)cc(Cl)cc2Cl)CC1 (racemic) [Example I-07] | 4.49^[a]
OC(Cn1cncn1)(c1ccc(F)cc1F)C1(Oc2c(F)ccc(Cl)c2F)CC1 (racemic) [Example I-08] | 3.39^[a]
OC(Cn1cncn1)(c1ccc(F)cc1F)C1(Oc2c(Cl)cc(OC(F)(F)F)cc2Cl)CC1 (racemic) [Example I-09] | 4.62^[a]
OC(Cn1cncn1)(c1ccc(F)cc1F)C1(Oc2c(Cl)cc(C(F)(F)F)cc2Cl)CC1 (racemic) [Example I-10] | 4.46^[a]
OC(Cn1cncn1)(c1ccc(F)cc1F)C1(Oc2c(Cl)cc(SC(F)(F)F)cc2Cl)CC1 (racemic) [Example I-11] | 4.97^[a]
OC(Cn1cncn1)(c1ccc(F)cc1F)C1(Oc2c(Cl)cc(Br)cc2Cl)CC1 (racemic) [Example I-12] | 4.62^[a]
OC(Cn1cncn1)(c1ccc(F)cc1F)C1(Oc2c(F)ccc(F)c2F)CC1 (racemic) [Example I-13] | 3.14^[a]
COC(Cn1cncn1)(c1ccc(F)cc1F)C1(Oc2c(F)ccc(F)c2F)CC1 (racemic) [Example I-14] | 3.50^[a]
COC(Cn1cncn1)(c1ccc(F)cc1F)C1(Oc2c(Cl)ccc(Cl)c2Cl)CC1 (racemic) [Example I-15] | 4.46^[a]
OC(Cn1cncn1)(c1ccc(F)cc1F)C1(Oc2c(Cl)cc(F)cc2Cl)CC1 (racemic) [Example I-16] | 3.94^[a]
COC(Cn1cncn1)(c1ccc(F)cc1F)C1(Oc2c(F)ccc(Cl)c2F)CC1 (racemic) [Example I-17] | 3.85^[a]
COC(Cn1cncn1)(c1ccc(F)cc1F)C1(Oc2c(Cl)cc(OC(F)(F)F)cc2Cl)CC1 (racemic) [Example I-18] | 4.87^[a]
OC(Cn1cncn1)(c1ccc(Cl)cc1F)C1(Oc2c(F)cc(Cl)cc2F)CC1 (racemic) [Example I-23] | 4.01^[a]
OC(Cn1cncn1)(c1ccc(Cl)cc1F)C1(Oc2c(F)cc(F)cc2F)CC1 (racemic) [Example I-24] | 3.51^[a]
COC(Cn1cncn1)(c1ccc(Cl)cc1F)C1(Oc2c(F)cc(Cl)cc2F)CC1 (racemic) [Example I-25] | 4.41^[a]
COC(Cn1cncn1)(c1ccc(Cl)cc1F)C1(Oc2c(F)cc(F)cc2F)CC1 (racemic) [Example I-26] | 3.97^[a]
OC(Cn1cncn1)(c1ccc(F)cc1F)C1(Oc2ccc(F)c(F)c2F)CC1 (racemic) [Example I-27] | 3.30^[a]

Results, then the compound that gave them:

LogP | SMILES
3.17^[a] | OC(Cn1cncn1)(c1ccc(F)cc1F)C1(Oc2cc(F)c(F)cc2F)CC1 (racemic) [Example I-28]
3.42^[a] | OC(Cn1cncn1)(c1ccc(F)cc1F)C1(Oc2c(F)ccc(F)c2Cl)CC1 (racemic) [Example I-29]
3.85^[a] | OC(Cn1cncn1)(c1ccc(F)cc1F)C1(Oc2cc(F)c(Br)c(F)c2)CC1 (racemic) [Example I-30]
4.59^[a] | Fc1ccc(C2(C3(Oc4c(F)cc(Cl)cc4F)CC3)CO2)c(F)c1 (racemic) [Example V-02]
4.86 | Fc1ccc(C2(C3(Oc4c(F)cc(Br)cc4F)CC3)CO2)c(F)c1 (racemic) [Example V-03]
4.64^[a] | Fc1ccc(C2(C3(Oc4cc(F)c(F)c(F)c4)CC3)CO2)c(F)c1 (racemic) [Example V-04]
5.62^[a] | Fc1ccc(C2(C3(Oc4c(Cl)cc(OC(F)(F)F)cc4Cl)CC3)CO2)c(F)c1 (racemic) [Example V-05]
4.65^[a] | Fc1ccc(C2(C3(Oc4c(F)ccc(Cl)c4F)CC3)CO2)c(F)c1 (racemic) [Example V-06]
5.56^[a] | Fc1ccc(C2(C3(Oc4c(Cl)cc(Cl)cc4Cl)CC3)CO2)c(F)c1 (racemic) [Example V-07]

Same assay, conditions: method [b]: LC-UV, neutral range, 0.001 molar ammonium acetate solution in water and acetonitrile as eluent

LogP | SMILES
4.87 | Fc1ccc(C2(C3(Oc4c(F)cc(Br)cc4F)CC3)CO2)c(F)c1 (racemic) [Example V-03]
